Converted amounts (≈) assume the structure as drawn.
Tests used:
Assay in all cases: in vitro antibacterial evaluation, MIC by broth dilution
Format in all cases: cell-based
[1] = tested on: Enterococcus sp.; details: broth dilution, 18 hours at 35° C.
Outline: (§1)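 MIC = lowest antibiotic concentration preventing visible growth; inoculum 5×10^5 CFU/mL; drug range 64-0.06 μg/mL; Muller-Hinton II […]; NCCLS M7-A2 guidance.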

[2] = tested on: Staphylococcus sp.; details: broth dilution, 18 hours at 35° C.
Outline: as §1

[3] = tested on: Streptococcus sp.; details: broth dilution, 18 hours at 35° C.
Outline: as §1

[4] = tested on: Escherichia coli; details: 18 hours at 35° C.
Outline: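 Broth dilution MIC per NCCLS M7-A2 in Mueller-Hinton II medium, inoculum 5×10^5 CFU/mL, antibiotic range 64-0.06 μg/mL. MIC taken as lowest concentration inhibiting growth.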

MIC Enterococcus avium (GC 4558) ([1]; Enterococcus avium (GC 4558)): 32 µg/mL (≈ 21.5 µM)
MIC Enterococcus faecalis (ATCC 29212) ([1]; Enterococcus faecalis (ATCC 29212)): 64 µg/mL (≈ 43.1 µM)
MIC Enterococcus faecalis (GC 4552) ([1]; Enterococcus faecalis (GC 4552)): 64 µg/mL (≈ 43.1 µM)
MIC Enterococcus faecalis (GC 4553) ([1]; Enterococcus faecalis (GC 4553)): 32 µg/mL (≈ 21.5 µM)
MIC Enterococcus faecalis (GC 4554) ([1]; Enterococcus faecalis (GC 4554)): 64 µg/mL (≈ 43.1 µM)
MIC Enterococcus faecalis (GC 6189) ([1]; Enterococcus faecalis (GC 6189)): 64 µg/mL (≈ 43.1 µM)
MIC Enterococcus faecium (GC 2243) ([1]; Enterococcus faecium (GC 2243)): 32 µg/mL (≈ 21.5 µM)
MIC Enterococcus faecium (GC 4556) ([1]; Enterococcus faecium (GC 4556)): 64 µg/mL (≈ 43.1 µM)
MIC Enterococcus faecium (GC 4557) ([1]; Enterococcus faecium (GC 4557)): 16 µg/mL (≈ 10.8 µM)
MIC Enterococcus avium (GC 4558) [1]: 32 µg/mL (≈ 21.5 µM)
MIC Enterococcus faecalis (ATCC 29212) [1]: 64 µg/mL (≈ 43.1 µM)
MIC Enterococcus faecalis (GC 2242) [1]: 32 µg/mL (≈ 21.5 µM)
MIC Enterococcus faecalis (GC 2691) [1]: 64 µg/mL (≈ 43.1 µM)
MIC Enterococcus faecalis (GC 3059) [1]: 64 µg/mL (≈ 43.1 µM)
MIC Enterococcus faecalis (GC 4552) [1]: 64 µg/mL (≈ 43.1 µM)
MIC Enterococcus faecalis (GC 4553) [1]: 32 µg/mL (≈ 21.5 µM)
MIC Enterococcus faecalis (GC 4554) [1]: 64 µg/mL (≈ 43.1 µM)
MIC Enterococcus faecalis (GC 6189) [1]: 64 µg/mL (≈ 43.1 µM)
MIC Enterococcus faecium (GC 2243) [1]: 32 µg/mL (≈ 21.5 µM)
MIC Enterococcus faecium (GC 4556) [1]: 64 µg/mL (≈ 43.1 µM)
MIC Enterococcus faecium (GC 4557) [1]: 16 µg/mL (≈ 10.8 µM)
MIC Enterococcus faecalis (GC 2242) ([1]; strain GC 2242): 32 µg/mL (≈ 21.5 µM)
MIC Enterococcus faecalis (GC 2691) ([1]; strain GC 2691): 64 µg/mL (≈ 43.1 µM)
MIC Enterococcus faecalis (GC 3059) ([1]; strain GC 3059): 64 µg/mL (≈ 43.1 µM)
MIC Staphylococcus aureus (ATCC 29213) ([2]; strain ATCC 29213): 32 µg/mL (≈ 21.5 µM)
MIC Staphylococcus aureus (GC 1131) ([2]; strain GC 1131): 32 µg/mL (≈ 21.5 µM)
MIC Staphylococcus aureus (GC 3051) ([2]; strain GC 3051): 32 µg/mL (≈ 21.5 µM)
MIC Staphylococcus aureus (GC 3053) ([2]; strain GC 3053): 64 µg/mL (≈ 43.1 µM)
MIC Staphylococcus aureus (GC 4541) ([2]; strain GC 4541): 32 µg/mL (≈ 21.5 µM)
MIC Staphylococcus aureus (GC 4542) ([2]; strain GC 4542): 32 µg/mL (≈ 21.5 µM)
MIC Staphylococcus aureus-SMITH (GC 4543) ([2]; strain GC 4543): 32 µg/mL (≈ 21.5 µM)
MIC Staphylococcus aureus (GC 4544) ([2]; strain GC 4544): 32 µg/mL (≈ 21.5 µM)
MIC Staphylococcus aureus (GC 4545) ([2]; strain GC 4545): 32 µg/mL (≈ 21.5 µM)
MIC Coagulase Negative Staphylococcus (GC 4547) ([2]; strain GC 4547): 32 µg/mL (≈ 21.5 µM)
MIC Coagulase Negative Staphylococcus (GC 4548) ([2]; strain GC 4548): 32 µg/mL (≈ 21.5 µM)
MIC Coagulase Negative Staphylococcus (GC 4549) ([2]; strain GC 4549): 32 µg/mL (≈ 21.5 µM)
MIC Coagulase Negative Staphylococcus (GC 4551) ([2]; strain GC 4551): 32 µg/mL (≈ 21.5 µM)
MIC Coagulase Negative Staphylococcus (GC 6257) ([2]; strain GC 6257): 8 µg/mL (≈ 5.38 µM)
MIC Streptococcus agalactiae (GC 4564) [3]: 8 µg/mL (≈ 5.38 µM)
MIC Streptococcus pneumoniae (ATCC 6301) [3]: 8 µg/mL (≈ 5.38 µM)
MIC Streptococcus pneumoniae (GC 1894) [3]: 4 µg/mL (≈ 2.69 µM)
MIC Streptococcus pneumoniae (GC 4565) [3]: 16 µg/mL (≈ 10.8 µM)
MIC Streptococcus pyogenes (GC 4563) [3]: 8 µg/mL (≈ 5.38 µM)
MIC Streptococcus pneumoniae (ATCC 6301) ([3]; strain ATCC 6301): 8 µg/mL (≈ 5.38 µM)
MIC Streptococcus pneumoniae (GC 1894) ([3]; strain GC 1894): 4 µg/mL (≈ 2.69 µM)
MIC Streptococcus pyogenes (GC 4563) ([3]; strain GC 4563): 8 µg/mL (≈ 5.38 µM)
MIC Streptococcus agalactiae (GC 4564) ([3]; strain GC 4564): 8 µg/mL (≈ 5.38 µM)
MIC Streptococcus pneumoniae (GC 4565) ([3]; strain GC 4565): 16 µg/mL (≈ 10.8 µM)
MIC Escherichia coli (ATCC 25922) [4]: >64 µg/mL
MIC Escherichia coli (GC 4559) [4]: >64 µg/mL
MIC Escherichia coli (GC 4560) [4]: 8 µg/mL (≈ 5.38 µM)
Structure (SMILES): CC(c1ccccc1)C1NC(=O)CNC(=O)C(CO)NC(=O)C(CC2CN(Cc3ccccc3)C(=N)N2C2OC(CO)C(O)C(O)C2O)NC(=O)C(CC2CNC(=N)N2)NC(=O)C(Cc2ccc(OC3OC(CO)C(OC4OC5COC6(OC5C(O)C4O)C4CC5CC(C4)CC6C5)C(O)C3O)cc2)NC1=O (stereo not drawn) [Example 80, Cyclo[3-(2-iminoimidazolidin-4-yl)alanyl-3-(1-benzyl-3-hexopyranosyl-2-iminoimidazolidin-4-yl)alanylserylglycyl-β-methylphenylalanyl-O-[4-O-[4,6-O-(2-adamantylidene)hexopyranosyl]hexopyranosyl]tyrosyl]]
MIC Staphylococcus haemolyticus (GC 4546) ([2]; strain GC 4546): 32 µg/mL (≈ 21.5 µM)

— US6914045B2, “Glycopeptide antibiotics” (Wyeth Holdings Corporation, priority 2001, dated 2005)
